Results from US7179823B1, “5-membered n-heterocyclic compounds with hypoglycemic and hypolipidemic activity” (Takeda Pharmaceutical Company Limited, priority 1999, dated 2007).
Read-outs that look alike come from different tables or passages of the source.

Assays:
KKA^y mice = assay: Hypoglycemic and hypolipidemic actions in mice; assay type: in vivo; details: Mus musculus, po, 96 h, four days; for inhibition in vivo at 0.005 %: 0.005% in powdery diet; for inhibition in vivo at 0.001 %: 0.001% in powdery diet
Excerpt: Hypoglycemic and Hypolipidemic Actions in Mice
Test compounds were mixed in a powdery diet (CE-2, Japan Clea) at the concentration of 0.01% (compounds of Examples 12, 30, 89, 186), 0.005% (compounds of Examples 7, 80, 82, 181, 182, 184, 256, 262, 283), 0.001% (compounds of Examples 9, 104, 110, 155, 156, 160, 167, 169, 172, 174, 176, 189), or 0.0003% (compounds of Examples 38, 40, 44), and freely given to KKA^y mice (9 to 12 weeks old, 5 mice in a group), a model of obese and type 2 diabetes mellitus, for four days. During this period, water was given freely. Blood was sampled from orbital venous plexus, and glucose and triglyceride levels in plasma separated from blood were determined enzymatically using L type Wako Glu2 (Wako Pure Chemical Industries, Ltd.) or L type Wako TG•H (Wako Pure Chemical Industries, Ltd.), respectively.
In the Table, the value of each treatment group is represented as percent reduction compared with the non-treatment group.

PPARγ-RXRα heterodimer = molecular target: T1, PPARγ-RXRα heterodimer (Homo sapiens, UniProt P37231); assay: PPARγ-RXRα heterodimer ligand activity (luciferase reporter, PPARγ:RXRα:4ERPP/CHO-K1 cells); assay type: cell-based; details: 48 hours, concentration for 50% of the maximum fold induction
T1 construct: expressed in transfected cells; host or cells: CHO-K1
T1 sequence (P37231 1-477 isoform P37231-2): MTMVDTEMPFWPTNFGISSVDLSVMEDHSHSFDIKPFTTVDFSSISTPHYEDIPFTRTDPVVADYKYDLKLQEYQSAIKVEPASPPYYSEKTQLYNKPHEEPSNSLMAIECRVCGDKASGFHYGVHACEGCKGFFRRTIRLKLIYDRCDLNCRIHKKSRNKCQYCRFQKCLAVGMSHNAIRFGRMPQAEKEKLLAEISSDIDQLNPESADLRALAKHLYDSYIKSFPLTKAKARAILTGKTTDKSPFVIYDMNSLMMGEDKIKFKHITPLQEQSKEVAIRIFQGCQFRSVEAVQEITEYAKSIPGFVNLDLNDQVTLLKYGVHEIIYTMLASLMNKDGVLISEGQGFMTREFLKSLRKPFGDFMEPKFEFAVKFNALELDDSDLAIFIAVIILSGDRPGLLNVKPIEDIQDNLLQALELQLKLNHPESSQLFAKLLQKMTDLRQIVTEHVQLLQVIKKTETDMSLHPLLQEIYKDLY
T1 sequence (P19793 1-462 partner): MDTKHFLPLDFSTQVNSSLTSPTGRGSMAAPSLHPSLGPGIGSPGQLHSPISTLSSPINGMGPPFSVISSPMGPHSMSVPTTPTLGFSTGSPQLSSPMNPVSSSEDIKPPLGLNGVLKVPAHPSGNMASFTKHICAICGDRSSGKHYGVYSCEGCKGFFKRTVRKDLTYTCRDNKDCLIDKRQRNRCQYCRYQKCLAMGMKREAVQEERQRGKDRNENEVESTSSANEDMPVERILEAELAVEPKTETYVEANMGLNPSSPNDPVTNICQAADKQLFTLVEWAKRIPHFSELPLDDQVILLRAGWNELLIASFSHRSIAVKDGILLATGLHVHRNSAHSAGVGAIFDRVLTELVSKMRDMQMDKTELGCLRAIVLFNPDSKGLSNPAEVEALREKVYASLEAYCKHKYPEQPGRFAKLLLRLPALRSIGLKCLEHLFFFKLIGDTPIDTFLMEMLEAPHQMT
Method: (PPARγ-RXRα Heterodimer Ligand Activity)
A PPARγ:RXRα:4ERPP/CHO-K1 cells obtained in Reference Example 5 described later were cultured in HAM F12 medium (produced by NISSUI SEIYAKU) containing 10% Fetal bovine serum (produced by Life Technologies, Inc., USA) and then inoculated to a 96-well white plate (produced by Corning Costar Corporation, USA) at the density of 2×10^4 cells/well, and cultured in a CO2 gas incubator at 37° C. overnight.
After washing the 96 well white plate with PBS (Phosphate-buffered saline), 90 μl of HAM F12 medium containing 0.1% fatty acid-free bovine serum albumin (BSA) and 10 μl of test compound were added, which was cultured in a CO2 gas incubator at 37° C. for 48 hours. After removing the medium, 40 μl of PIKKAGENE 7.5 (produced by Wako Pure Chemical Industries, Ltd.) was added. After stirring, the luciferase activity was determined using Lumistar (produced by BMG Labtechnologies GmbH, Germany).
A fold induction was calculated based on the luciferase activity of each test compound by taking the luciferase activity in the non-treatment group as 1. The values of the test compound concentration and the fold induction were analyzed using PRISM 2.01 (produced by GraphPad Software Inc. USA) to calculate the EC50 values, the effective concentration of a test compound for 50% of the maximum fold induction.
(Introduction of Human PPARγ- and RXRα-Expressing Plasmid and Reporter Plasmid into CHO-K1 Cell and Establishment of Expressed Cell)
After a CHO-K1 cell cultured in a 750 ml tissue culture flask (produced by Corning Costar Corporation, USA) containing HAM F12 medium (produced by NISSUI SEIYAKU) supplemented with 10% Fetal Bovine Serum (produced by Life Technologies, Inc., USA) was scraped by treating with 0.5 g/L trypsin-0.2 g/L EDTA (ethylenediaminetetraacetic acid) (produced by Life Technologies, Inc., USA), the cell was washed with PBS (phosphate-buffered saline) (produced by Life Technologies, Inc., USA), centrifuged (1000 rpm, 5 minutes), and then suspended in PBS. Subsequently, a DNA was introduced into the cell under the condition shown below using GENE PULSER (produced by Bio-Rad Laboratories, USA).
Namely, to a cuvette having a 0.4 cm gap, added were 8×10^6 cells and 10 μg of plasmid pVgRXR2-hPPAR γ obtained in Reference Example 3 and 10 μg of reporter plasmid pGL3-4ERPP-TK neo obtained in Reference Example 4, which was subjected to electroporation at the voltage of 0.25 kV under the capacitance of 960 μF. Subsequently, the cell was transferred into a HAM F12 medium containing 10% Fetal Bovine Serum and cultured for 24 hours and then the cell was scraped again and centrifuged, and then suspended in HAM F12 medium containing 10% Fetal Bovine Serum supplemented with 500 μg/ml of GENETICIN (produced by Life Technologies, Inc., USA) and 250 μg/ml of ZEOCIN (produced by Invitrogen, USA) and diluted to the density of 10^4 cells/ml upon inoculation to a 96-well plate (produced by Corning Costar Corporation, USA), which was cultured in a CO2 gas incubator at 37° C., whereby obtaining a GENETICIN- and ZEOCIN-resistant transformant.
Subsequently, after the transformant cell line thus obtained was cultured in a 24-well plate (produced by Corning Costar Corporation, USA), selected was a cell line in which the luciferase was expressed and induced, i.e., PPARγ:RXRα:4ERPP/CHO-K1 cell by addition of 10 μM pioglitazone hydrochloride.

[1] = percent reduction of plasma glucose compared with the non-treatment group, read-out: Hypoglycemic action (%)
[2] = percent reduction of plasma triglyceride compared with the non-treatment group, read-out: Hypolipidemic action (%)

SMILES	melting point [°C]	EC50 (PPARγ-RXRα heterodimer) [nM]	inhibition in vivo at 0.005 % (KKA^y mice; [1]) [%]	inhibition in vivo at 0.005 % (KKA^y mice; [2]) [%]	inhibition in vivo at 0.001 % (KKA^y mice; [1]) [%]	inhibition in vivo at 0.001 % (KKA^y mice; [2]) [%]
Cc1oc(-c2ccccc2)nc1COc1ccc(Cn2cc(CCC(=O)O)c(-c3ccccc3)c2)cc1 [Example 7, 3-[1-[4-(5-methyl-2-phenyl-4-oxazolylmethoxy)benzyl]-4-phenyl-3-pyrrolyl]propionic acid]	124 to 125	3.8	54	60	–	–
Cc1oc(-c2ccco2)nc1COc1ccc(Cn2cc(CCC(=O)O)c(-c3ccccc3)n2)cc1 [Example 80, 3-[1-[4-[2-(2-furyl)-5-methyl-4-oxazolylmethoxy]benzyl]-3-phenyl-1H-pyrazol-4-yl]propionic acid]	152 to 153	2.5	42	22	–	–
CCOC(=O)CCc1cn(Cc2ccc(OCc3nc(-c4ccco4)oc3C)cc2)nc1-c1ccc(F)cc1 [Example 104, ethyl 3-[3-(4-fluorophenyl)-1-[4-[2-(2-furyl)-5-methyl-4-oxazolylmethoxy]benzyl]-1H-pyrazol-4-yl]propionate]	–	2	–	–	43	42
CCCc1nn(Cc2ccc(OCc3nc(-c4ccccc4)oc3C)cc2)cc1CCC(=O)O [Example 110, 3-[1-[4-(5-methyl-2-phenyl-4-oxazolylmethoxy)benzyl]-3-propyl-1H-pyrazol-4-yl]propionic acid]	153 to 154	3.5	–	–	50	70
CCOc1nn(Cc2ccc(OCc3cn(-c4ccccn4)nc3C)cc2)cc1CCC(=O)O [Example 256, 3-[3-ethoxy-1-[4-(3-methyl-1-(2-pyridyl)-1H-pyrazol-4-ylmethoxy]benzyl]-1H-pyrazol-4-yl]propionic acid]	126 to 127	53	57	16	–	–

Now those with a lower EC50 (PPARγ-RXRα heterodimer), led by results:

melting point [°C]	EC50 (PPARγ-RXRα heterodimer) [nM]	SMILES	inhibition in vivo at 0.005 % (KKA^y mice; [1]) [%]	inhibition in vivo at 0.005 % (KKA^y mice; [2]) [%]	inhibition in vivo at 0.001 % (KKA^y mice; [1]) [%]	inhibition in vivo at 0.001 % (KKA^y mice; [2]) [%]
139 to 140	1.8	Cc1oc(-c2ccccc2)nc1COc1ccc(Cn2cc(CCC(=O)O)c(-c3ccc(F)cc3)n2)cc1 [Example 100, 3-[3-(4-fluorophenyl)-1-[4-(5-methyl-2-phenyl-4-oxazolylmethoxy)benzyl]-1H-pyrazol-4-yl]propionic acid]	–	–	–	–
159 to 160	1.4	Cc1oc(-c2cccs2)nc1COc1ccc(Cn2cc(CCC(=O)O)c(-c3ccccc3)n2)cc1 [Example 82, 3-[1-[4-[5-methyl-2-(2-thienyl)-4-oxazolylmethoxy]benzyl]-3-phenyl-1H-pyrazol-4-yl]propionic acid]	50	58	–	–
